Measured values: patent US7981879B2, “HIV integrase inhibitors” (Instituto di Ricerchi di Biologia Molecolare P. Angeletti …, priority 2005, dated 2011)
Read-outs that look alike come from different tables or passages of the source.

Test system: HIV
Assay: Assay for inhibition of HIV replication (spread assay): acute HIV infection of T-lymphoid cells
Assay type: cell-based
Settings: read-out: CIC95, inhibition of HIV replication
Description: Assays for the inhibition of acute HIV infection of T-lymphoid cells (alternatively referred to herein as the “spread assay”) were conducted in accordance with Vacca, J. P. et al., Proc. Natl. Acad. Sci. USA 1994, 91: 4096. […] The other compounds in Table 1 were tested in the spread assay up to 1 micromolar, but specific IC95 values were not obtained; i.e., the IC95 values were greater than 1 micromolar. It is believed, however, that the IC95 values of these compounds would be less than about 50 micromolar.

[1] = Human immunodeficiency virus 1, spread assay, T-lymphoid cells

| Structure (SMILES) | IC95 (Human immunodeficiency virus 1, T-lymphoid) [nM] | IC95 [1] [nM] |
| --- | --- | --- |
| CN1Cn2c(nc(C(=O)NCc3ccc(F)cc3)c(O)c2=O)C12CCCCC2 [Compound 1, N-(4-fluorobenzyl)-3′-hydroxy-7′-methyl-4′-oxo-6′,7′-dihydro-4′H-spiro[cyclohexane-1,8′-imidazo[1,5-a]pyrimidine]-2′-carboxamide] | < 1000 |  |
| O=C(NCc1ccc(F)cc1)c1nc2n(c(=O)c1O)CCNC2COCc1ccccc1 (centres unmarked) [Compound 9, 9-[(benzyloxy)methyl]-N-(4-fluorobenzyl)-3-hydroxy-4-oxo-6,7,8,9-tetrahydro-4H-pyrazino[1,2-a]pyrimidine-2-carboxamide] |  | < 1000 |
| COC(=O)N(C)C1CN(C)CCn2c1nc(C(=O)NCc1ccc(F)cc1)c(O)c2=O (centres unmarked) [Compound 166, methyl (2-{[(4-fluorobenzyl)amino]carbonyl}-3-hydroxy-8-methyl-4-oxo-4,6,7,8,9,10-hexahydropyrimido[1,2-d][1,4]diazepin-10-yl)methylcarbamate] |  | < 1000 |
| CC1(C)NS(=O)(=O)Cn2c1nc(C(=O)NCc1ccc(F)cc1)c(O)c2=O [Compound 105, N-(4-fluorobenzyl)-3-hydroxy-9,9-dimethyl-4-oxo-8,9-dihydro-4H-pyrimido[2,1-d][1,2,5]thiadiazine-2-carboxamide 7,7-dioxide] |  | 1000 to 10000 |
| CN1CCn2c(nc(C(=O)NCc3ccc(F)cc3)c(O)c2=O)C(N(C)S(C)(=O)=O)C1 (centres unmarked) [Compound 163, N-(4-fluorobenzyl)-3-hydroxy-8-methyl-10-[methyl(methylsulfonyl)amino]-4-oxo-4,6,7,8,9,10-hexahydropyrimido[1,2-d][1,4]diazepine-2-carboxamide] |  | < 1000 |
| CC(=O)N1CCn2c(nc(C(=O)NCc3ccc(F)cc3)c(O)c2=O)C1COCc1ccccc1 (centres unmarked) [Compound 12, 8-acetyl-9-[(benzyloxy)methyl]-N-(4-fluorobenzyl)-3-hydroxy-4-oxo-6,7,8,9-tetrahydro-4H-pyrazino[1,2-a]pyrimidine-2-carboxamide] |  | 1000 to 10000 |
| CC1(C)c2nc(C(=O)NCc3ccc(F)cc3)c(O)c(=O)n2CN1Cc1cccnc1 [Compound 6, N-(4-fluorobenzyl)-3-hydroxy-8,8-dimethyl-4-oxo-7-(pyridin-3-ylmethyl)-4,6,7,8-tetrahydroimidazo[1,5-a]pyrimidine-2-carboxamide] |  | < 1000 |
| CN1CCn2c(nc(C(=O)NCc3ccc(F)cc3)c(O)c2=O)C(N(C)Cc2ccccc2)C1 (centres unmarked) [Compound 159, 10-[benzyl(methyl)amino]-N-(4-fluorobenzyl)-3-hydroxy-8-methyl-4-oxo-4,6,7,8,9,10-hexahydropyrimido[1,2-d][1,4]diazepine-2-carboxamide] |  | 1000 to 10000 |
| O=C(NCc1ccc(F)cc1)c1nc2n(c(=O)c1O)CCNC21CCOCC1 [Compound 29, N-(4-fluorobenzyl)-3′-hydroxy-4′-oxo-2,3,5,6,7′,8′-hexahydro-4′H,6′H-spiro[pyran-4,9′-pyrazino[1,2-a]pyrimidine]-2′-carboxamide] |  | < 1000 |
| CN(C)C(=O)CN1CCn2c(nc(C(=O)NCc3ccc(F)cc3)c(O)c2=O)C1(C)C [Compound 64, 8-[2-(dimethylamino)-2-oxoethyl]-N-(4-fluorobenzyl)-3-hydroxy-9,9-dimethyl-4-oxo-6,7,8,9-tetrahydro-4H-pyrazino[1,2-a]pyrimidine-2-carboxamide] |  | 1000 to 10000 |
| CC(C)CNC1CN(C)CCn2c1nc(C(=O)NCc1ccc(F)cc1)c(O)c2=O (centres unmarked) [Compound 169, N-(4-fluorobenzyl)-3-hydroxy-10-(isobutylamino)-8-methyl-4-oxo-4,6,7,8,9,10-hexahydropyrimido[1,2-d][1,4]diazepine-2-carboxamide] |  | 1000 to 10000 |
| CN1CCn2c(nc(C(=O)NCc3ccc(F)cc3)c(O)c2=O)C(NC(=O)C(=O)N(C)C)C1 (centres unmarked) [Compound 160, N′-(2-{[(4-fluorobenzyl)amino]carbonyl}-3-hydroxy-8-methyl-4-oxo-4,6,7,8,9,10-hexahydropyrimido[1,2-d][1,4]diazepin-10-yl)-N,N-dimethylethanediamide] |  | < 1000 |
| CC1(C)NCCCn2c1nc(C(=O)NCc1ccc(F)cc1)c(O)c2=O [Compound 175, N-(4-fluorobenzyl)-3-hydroxy-10,10-dimethyl-4-oxo-4,6,7,8,9,10-hexahydropyrimido[1,2-a][1,4]diazepine-2-carboxamide] |  | < 1000 |
| CN1Cn2c(nc(C(=O)NCc3ccc(F)cc3)c(O)c2=O)C1(C)C [Compound 5, N-(4-fluorobenzyl)-3-hydroxy-7,8,8-trimethyl-4-oxo-4,6,7,8-tetrahydroimidazo[1,5-a]pyrimidine-2-carboxamide] |  | < 1000 |
| CC(=O)N(C)C1CN(C)CCn2c1nc(C(=O)NCc1ccc(F)cc1)c(O)c2=O (centres unmarked) [Compound 170, 10-[acetyl(methyl)amino]-N-(4-fluorobenzyl)-3-hydroxy-8-methyl-4-oxo-4,6,7,8,9,10-hexahydropyrimido[1,2-d][1,4]diazepine-2-carboxamide] |  | < 1000 |
| CN1Cn2c(nc(C(=O)NCc3ccc(F)cc3S(C)(=O)=O)c(O)c2=O)C1(C)C [Compound 2, N-[4-fluoro-2-(methylsulfonyl)benzyl]-3-hydroxy-7,8,8-trimethyl-4-oxo-4,6,7,8-tetrahydroimidazo[1,5-a]pyrimidine-2-carboxamide] |  | < 1000 |
| CSCC1NCCn2c1nc(C(=O)NCc1ccc(F)cc1)c(O)c2=O (centres unmarked) [Compound 27, N-(4-fluorobenzyl)-3-hydroxy-9-[(methylthio)methyl]-4-oxo-6,7,8,9-tetrahydro-4H-pyrazino[1,2-a]pyramidine-2-carboxamide] |  | < 1000 |
| CN1CCn2c(nc(C(=O)NCc3ccc(F)cc3)c(O)c2=O)C1COCc1ccccc1 (centres unmarked) [Compound 11, 9-[(benzyloxy)methyl]-N-(4-fluorobenzyl)-3-hydroxy-8-methyl-4-oxo-6,7,8,9-tetrahydro-4H-pyrazino[l,2-a]pyrimidine-2-carboxamide] |  | 1000 to 10000 |
| CN1CCCn2c(nc(C(=O)NCc3ccc(F)cc3)c(O)c2=O)C1(C)C [Compound 176, N-(4-fluorobenzyl)-3-hydroxy-9,10,10-trimethyl-4-oxo-4,6,7,8,9,10-hexahydropyrimido[1,2-a][1,4]diazepine-2-carboxamide] |  | < 1000 |
| CC1c2nc(C(=O)NCc3ccc(F)cc3)c(O)c(=O)n2CCN1C (centres unmarked) [Compound 32, N-(4-fluorobenzyl)-3-hydroxy-8,9-dimethyl-4-oxo-6,7,8,9-tetrahydro-4H-pyrazino[1,2-a]pyrimidine-2-carboxamide] |  | < 1000 |
| CN1CCn2c(nc(C(=O)NCc3ccc(F)cc3)c(O)c2=O)C1CS(C)(=O)=O (centres unmarked) [Compound 28, N-(4-fluorobenzyl)-3-hydroxy-8-methyl-9-[(methylsulfonyl)methyl]-4-oxo-6,7,8,9-tetrahydro-4H-pyrazino[1,2-a]pyrimidine-2-carboxamide] |  | 1000 to 10000 |
| CN1CCn2c(nc(C(=O)NCc3ccc(F)cc3)c(O)c2=O)C12CCOCC2 [Compound 30, N-(4-fluorobenzyl)-3′-hydroxy-8′-methyl-4′-oxo-2,3,5,6,7′,8′-hexahydro-4′H,6′H-spiro[pyran-4,9′-pyrazino[1,2-a]pyrimidine]-2′-carboxamide] |  | < 1000 |
| CC(=O)N(CC(C)C)C1CN(C)CCn2c1nc(C(=O)NCc1ccc(F)cc1)c(O)c2=O (centres unmarked) [Compound 161, 10-[acetyl(isobutyl)amino]-N-(4-fluorobenzyl)-3-hydroxy-8-methyl-4-oxo-4,6,7,8,9,10-hexahydropyrimido[1,2-d][1,4]diazepine-2-carboxamide] |  | < 1000 |
